Measured values from paper PMC10259201, “Mercapto-pyrimidines are reversible covalent inhibitors of the papain-like protease (PLpro) and inhibit SARS-CoV-2 (SCoV-2) replication” (RSC Advances, 2023).
“And” between values parts separate entries of the source, which are not always exact repeats. Equal entries are not always repeated. “Also recorded” adds a separate entry of the source. Where two headings read alike, the source gives them in different places.

Legend:
PLpro from SCoV-2 [1] = target: PLpro from SCoV-2 (Severe acute respiratory syndrome coronavirus 2, UniProt P0DTD1); test: Fluorescent PLpro inhibition assay (RLRGG-AMC substrate), dose response; format: biochemical, SARS-CoV-2
SARS-CoV-2 USA-WA1/2020 = test: SCoV-2 USA-WA1/2020 antiviral assay with plaque forming readout in Vero E6 cells; format: cell-based
PLpro [2] = target: T1, PLpro (Severe acute respiratory syndrome coronavirus 2, UniProt P0DTD1); test: Surface plasmon resonance with immobilized His-tagged PLpro; format: binding, SARS-CoV-2
SCoV2 PLpro = SCoV2 PLpro (Severe acute respiratory syndrome coronavirus 2, UniProt P0DTD1); test: Gel-based activity based protein profiling (IA-rhodamine / NHS-rhodamine); format: biochemical, SARS-CoV-2; settings: pulse chase
Description: We performed activity-based profiling experiments to determine if compound 5 covalently reacted with the cysteines or lysines of PLpro.[36] Iodoacetamide-rhodamine was used as the probe for cysteine reactivity analysis and NHS-rhodamine was the probe for investigating lysine reactivity on PLpro. A traditional pulse chase experiment was performed with PLpro and the rhodamine dyes, where PLpro was first incubated with compound 5 and then incubated with iodoacetamide-rhodamine or NHS-rhodamine. After the dye incubation, PLpro was run on a protein gel and imaged via fluorescence. […] The other thiols in PLpro are either disulfides, which are unreactive to nucleophiles, or zinc chelated and have diminished nucleophilicity.
For gel-based ABPP experiments with PLpro, pure SCoV2 PLpro protein (0.1 μg per sample for IA-rhodamine and 0.05 μg for NHS-rhodamine) was pretreated with either DMSO vehicle or desired dosage of compound 5 at 37 °C for 1 hour in 25 μL PBS. […] Probe-labeled proteins were analyzed by in-gel rhodamine fluorescence using a ChemiDoc MP (Bio-Rad). Protein loading was assessed by Silver Staining.

PLpro [3] = target: T1, PLpro; test: Time dependent PLpro inhibition assay (pre-incubation); format: biochemical, SARS-CoV-2
Source text: Compound 5 contains a mercaptopyrimidine fragment, which can potentially undergo addition–elimination reactions with nucleophiles. For example, Murugesan et al. recently identified a mercaptopyrimidine based inhibitor of tuberculosis cell growth, which reacted with glutathione under physiological conditions.[27,35] PLpro is a cysteine protease with a nucleophilic cysteine in its active site, which could potentially react with compound 5via an additional elimination reaction. We performed a time dependent PLpro inhibition assay with compound 5 to determine if pre-incubation time lowered its IC50. Pre-incubation time lowers the IC50 of covalent inhibitors because it gives more time for the protein to react with the inhibitor. In contrast, pre-incubation time frequently has no effect on the IC50 of non-covalent inhibitors because their koffs are generally on the timescale of second to minutes.
The PLpro protein (50 nM) was preincubated with different concentration of inhibitor (0, 1, 2.5, 5, 10 and 20 μM) for different time points (0, 5, 10, 20, 35, 95, 125, 185 minutes). The substrate (50 μM) was added and measured the fluorescence. The data was analyzed using Enzyme – inhibition, GraphPad Prism.

[4] = Cytotoxicity assay (resazurin); format: cell-based; settings: African green monkey, Vero CCL-81 cells, Vero CCL-81, resazurin, read-out: cell viability
Vero CCL-81 cells = test: Cytotoxicity assay (resazurin); format: cell-based; settings: 50 μM, Vero CCL-81, resazurin
SARS-CoV-2-NLuc = format: cell-based; settings: data not shown
PLpro [5] = target: T1, PLpro; test: Jump dilution assay (reversibility of PLpro inhibition); format: biochemical, SARS-CoV-2
Description: To investigate if compound 5 constitutes a novel class of RCI, we performed a jump dilution assay with PLpro, compound 5 and beta-mercaptoethanol (BMe). PLpro and compound 5 were mixed and allowed to react, diluted 25-fold in the presence of 5 mM BMe[38,39] and the inhibition of PLpro was measured.
BMe is not a biological nucleophile, and we re-did the jump dilution assay in the presence of either 5 mM reduced glutathione (GSH) or 200 μM cysteine (their physiological concentrations)[40] to determine if the PLpro-compound 5 adduct would rapidly decompose in cells. […] In contrast, smaller thiols such as BMe and cysteine can apparently access the PLpro active site and can displace compound 5. […] In addition, the mercaptopryimidine ring can function as a size selective filter for thiols and this unique feature should allow it to find numerous applications in drug discovery.
PLpro was mixed with compound 5 at the 10-fold higher concentration of IC50 (10 × IC50) and allowed to form protein-inhibitor complex at saturating conditions at room temperature. The complex was then rapidly diluted in a buffer supplemented with 5 mM reduced glutathione, 5 mM beta-mercaptoethanol (BMe), 200 μM cysteine to bring the compound's concentration of 1/10 × IC50. After 5 minutes of dilution, the substrate was added and incubated for 30 minutes. The fluorescent intensities were read at the excitation wavelength of 360 nm and emission wavelength of 460 nm.

PLpro from SCoV-2 [6] = system: PLpro from SCoV-2; parameters: method as in PMID 33531496, PMID 32895623, PMID 33473130, PMID 34341772, PMID 32845033; settings: cited from earlier work
SCoV-2 [7] = system: SCoV-2; parameters: method as in PMID 33531496, PMID 32895623, PMID 33473130, PMID 34341772, PMID 32845033; settings: cited from earlier work
SCoV PLpro = system: SCoV PLpro; parameters: method as in PMID 18852458; settings: cited from earlier work
SCoV-2 [8] = system: SCoV-2; parameters: method as in PMID 33531496, PMID 32895623, PMID 33473130, PMID 34341772, PMID 32845033; settings: oral delivery; cited from earlier work
[9] = IC50 (PLpro inhibition, HTS hits), HTS hit dose response, 10 point 1:2 dilution from 40 μM, 50 nM PLpro, 50 μM RLRGG-AMC
[10] = IC50 (PLpro inhibition, compound 5 and derivatives), hit exploration / SAR, compounds purchased from ChemDiv

## Cc1nn(-c2ccccc2)c(OC(=O)C(C)C)c1Sc1ccccc1 [Compound 1]
PLpro from SCoV-2 [1]; [9]
  IC50: 0.815 µM

## CNC(=O)c1sc(=S)n(-c2cc(Cl)ccc2OC)c1N [Compound 2]
PLpro from SCoV-2 [1]; [9]
  IC50: 0.985 µM

## Cc1nnc(Sc2nc(Sc3nnc(C)s3)nc(Sc3nnc(C)s3)n2)s1 [Compound 4]
PLpro from SCoV-2 [1]; [9]
  IC50: 1.42 µM

## CCSc1nc2sc3c(c2c(=O)n1CC)CCc1ccccc1-3 [Compound 5B]
PLpro from SCoV-2 [1]; hit exploration / SAR, compounds purchased from ChemDiv, read-out: IC50 (PLpro inhibition, compound 5 and derivatives)
  IC50: 5 µM and 4.99 µM
SARS-CoV-2 USA-WA1/2020
  antiviral activity in Vero E6 cells by plaque assay: did not have any antiviral activity; also recorded: do not exhibit antiviral activity

## C=CCSc1nc2sc3c(c2c(=O)n1CC)CCc1ccccc1-3 [Compound 5E]
PLpro [2]
  Kd: 8.3 µM
PLpro from SCoV-2 [1]; [10]
  IC50: 0.9 µM and 0.853 µM and 0.85 µM
PLpro from SCoV-2 [1]; compared with compound 5
  IC50 relative to compound 5 (times lower / fold higher potency): approximately 5 fold
SARS-CoV-2 USA-WA1/2020
  antiviral activity in Vero E6 cells by plaque assay: did not have any antiviral activity; also recorded: do not exhibit antiviral activity

## CCCSc1nc2sc3c(c2c(=O)n1CC)CCc1ccccc1-3 [Compound 5]
PLpro [2]; SPR, His-tagged PLpro on Ni-NTA chip, read-out: binding constant KD
  Kd: 21 µM
SCoV2 PLpro; IA-rhodamine probe
  cysteine reactivity: blocking of iodoacetamide-rhodamine labelling of PLpro: prevents PLpro from reacting with iodo-acetamide; also recorded: able to prevent PLpro from reacting with iodo-acetamide
SCoV2 PLpro; NHS-rhodamine probe
  lysine reactivity: blocking of NHS-rhodamine labelling of PLpro: unable to prevent PLpro from reacting with NHS-rhodamine
PLpro [3]; 3 hour pre-incubation with PLpro, read-out: IC50 of PLpro inhibition after 3 hour pre-incubation
  IC50: 0.9 µM
PLpro [3]; 3 hours pre-incubation vs none
  decrease in IC50 after pre-incubation: 10 fold
PLpro [3]; no pre-incubation, read-out: IC50 of PLpro inhibition, no pre-incubation
  IC50: 9 µM
PLpro from SCoV-2 [1]; [9]
  IC50: 1.59 µM
PLpro from SCoV-2 [1]; [10]
  IC50: 5.1 µM and 5.19 µM and 5 µM
[4]; 1 μM
  viability at 72 h, 1 µM: > 85%
[4]; 10 μM
  viability at 72 h, 10 µM: > 85%
[4]; 25 μM
  viability at 72 h, 25 µM: > 85%
Vero CCL-81 cells
  toxicity: significant toxicity
SARS-CoV-2 USA-WA1/2020; 10 μM
  reduction in infectious virus levels (plaque forming assay): 3 fold
SARS-CoV-2 USA-WA1/2020; 20 μM
  reduction in infectious virus levels (plaque forming assay): 22 fold
SARS-CoV-2-NLuc; 10 μM
  reduction of NLuc levels of infected cells: 3 fold
SARS-CoV-2-NLuc; 20 μM
  reduction of NLuc levels of infected cells: 7 fold
PLpro [5]; 200 μM cysteine
  recovery of PLpro activity after dilution: can regenerate active PLpro; also recorded: recovered the activity of PLpro
PLpro [5]; 5 mM reduced glutathione (GSH)
  recovery of PLpro activity after dilution: cannot; also recorded: did not
PLpro [5]; diluted 25-fold with 5 mM BMe, 5 minutes
  recovery of PLpro activity after dilution: 90%
PLpro [5]; dilution in PBS
  recovery of PLpro activity after dilution: still inhibits PLpro after dilution with PBS
PLpro [5]; dilution in PBS, listed as compound 5
  recovery of PLpro activity after dilution: no effect on the activity of PLpro

## CCn1c(N)c(C(=O)Nc2ccccc2OC)sc1=S [Compound 6]
PLpro from SCoV-2 [1]; [9]
  IC50: 2.73 µM

## CCOC(=O)c1sc(=S)n(-c2cc(OC)ccc2OC)c1N [Compound 7]
PLpro from SCoV-2 [1]; [9]
  IC50: 3.87 µM

## CN(C)C(S)=Nc1nc2ccccc2s1 [Compound 8]
PLpro from SCoV-2 [1]; [9]
  IC50: 4.76 µM

## COC(=O)c1ccc([C@@H]2Nc3c(Cl)cccc3[C@@H]3C=CC[C@@H]32)cc1 [Compound 9]
PLpro from SCoV-2 [1]; [9]
  IC50: 7.94 µM

## Cc1ccc(-n2c(N)c(C(=O)N3CCCCC3)sc2=S)cc1 [Compound 10]
PLpro from SCoV-2 [1]; [9]
  IC50: 8.33 µM

## Cc1ccc(N)cc1C(=O)N[C@H](C)c1cccc2ccccc12 [GRL0617]
PLpro from SCoV-2 [6]
  IC50 (PLpro from SCoV-2): micromolar range
SCoV-2 [7]
  IC50 (viral replication in cells): micromolar range
SCoV PLpro
  IC50 (SCoV PLpro): low micromolar range
SCoV-2 [8]
  antiviral activity against SCoV-2 in mice: moderate antiviral activity

## CCC(CC)COC(=O)[C@H](C)N[P@](=O)(OC[C@H]1O[C@@](C#N)(c2ccc3c(N)ncnn23)[C@H](O)[C@@H]1O)Oc1ccccc1 [Remdesivir, reference compound]
SARS-CoV-2 USA-WA1/2020; 100 μM
  antiviral activity, positive control in plaque forming assay: potently inhibited the virus
